# Test results: patent US10702498B2 (priority 2015, dated 2020)
# Read-outs that look alike come from different tables or passages of the source.
# Key:
# [1] = molecular target: hMOR + Gqi5 (Homo sapiens (Human), UniProt P35372); experiment: IP accumulation assay; format: cell-based; conditions: % morphine
# [2] = molecular target: hKOR (Homo sapiens (Human), UniProt P41145); experiment: Receptor binding, [3H]diprenorphine
# [3] = molecular target: humanDOR (Homo sapiens (Human), UniProt P41143); experiment: Receptor binding, [3H]diprenorphine
# [4] = molecular target: T1, μOR β-arrestin2 recruitment (Homo sapiens (Human), UniProt P35372); experiment: β-Arrestin2 recruitment without GRK2 co-expression (BRET); format: cell-based
# [5] = molecular target: T2, MOR (Homo sapiens (Human), UniProt P35372); experiment: Functional annotation (MOR agonist / antagonist), method not stated
# [6] = molecular target: T3, μOR (Homo sapiens (Human), UniProt P35372); experiment: cell-based; format: cell-based
# [7] = molecular target: human μOR β-arrestin2 recruitment + GRK2 (Homo sapiens (Human), UniProt P35372); experiment: β-Arrestin2 recruitment with GRK2 co-expression (BRET); format: cell-based
# [8] = molecular target: T2, MOR; experiment: Receptor binding, [3H]diprenorphine; conditions: binding affinity Ki [nM] hMOR
# [9] = molecular target: T3, μOR; experiment: BRET-based cAMP accumulation assay (Gi/o signaling, SAR of PZM21-29); format: cell-based; conditions: for loss of potency in Gi/o signaling assay: compared to parent reference compound (PZM22)
# [10] = tested on: mice; experiment: Conditioned place preference; format: in vivo; conditions: mouse
# Protocol: On day 1 (preconditioning day), mice were placed in the central chamber and allowed to explore freely for 30 minutes. Time spent in each compartment was used to estimate baseline chamber preferences and mice showing specific chamber bias more than 70% were not studied further. On days 2-9 (conditioning days) mice were injected with either vehicle or drug and paired with either the white mesh or the black rod chambers. All mice received vehicle on days 2, 4, 6, 8 and drug on days 3, 5, 7, 9. On day 10 (test day), mice were again placed in the central chamber as on day 1 and allowed to explore freely for 30 minutes. Time spent in each chamber was expressed as percentage preference.
# [11] = molecular target: T4, κOR (Homo sapiens (Human), UniProt P41145); experiment: Gi/o Glosensor assay (agonist and antagonist mode)
# [12] = tested on: mice; experiment: Whole body plethysmography (respiration); conditions: mouse; equianalgesic doses PZM21 40 mg/kg, TRV130 […], morphine 10 mg/kg
# [13] = molecular target: T4, κOR; format: binding; conditions: no Ki given
# [14] = molecular target: nociceptin receptor (Homo sapiens (Human), UniProt P41146); experiment: Gi/o Glosensor assay; conditions: read-out: Gi/o (Glosensor) Emax (%) nociceptin
# [15] = molecular target: T1, μOR β-arrestin2 recruitment; experiment: β-Arrestin recruitment, PathHunter enzyme complementation assay (DiscoveRx OPRM1 CHO-K1); format: cell-based; conditions: read-out: Arrestin recruitment (PathHunter) Emax (%) μOR
# Sequence of hKOR (P41145 whole entry): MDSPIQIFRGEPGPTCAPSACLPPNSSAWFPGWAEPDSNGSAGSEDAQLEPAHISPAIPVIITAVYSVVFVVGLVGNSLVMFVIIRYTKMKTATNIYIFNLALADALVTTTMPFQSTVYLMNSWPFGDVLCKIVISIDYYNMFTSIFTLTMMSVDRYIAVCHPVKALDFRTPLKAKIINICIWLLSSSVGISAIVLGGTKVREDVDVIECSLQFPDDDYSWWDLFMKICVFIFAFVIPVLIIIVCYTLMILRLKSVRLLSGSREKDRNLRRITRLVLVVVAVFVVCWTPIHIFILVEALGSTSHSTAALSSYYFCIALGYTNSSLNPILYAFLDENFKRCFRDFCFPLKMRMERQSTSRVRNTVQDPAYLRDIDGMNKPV
# Sequence of humanDOR (P41143 whole entry): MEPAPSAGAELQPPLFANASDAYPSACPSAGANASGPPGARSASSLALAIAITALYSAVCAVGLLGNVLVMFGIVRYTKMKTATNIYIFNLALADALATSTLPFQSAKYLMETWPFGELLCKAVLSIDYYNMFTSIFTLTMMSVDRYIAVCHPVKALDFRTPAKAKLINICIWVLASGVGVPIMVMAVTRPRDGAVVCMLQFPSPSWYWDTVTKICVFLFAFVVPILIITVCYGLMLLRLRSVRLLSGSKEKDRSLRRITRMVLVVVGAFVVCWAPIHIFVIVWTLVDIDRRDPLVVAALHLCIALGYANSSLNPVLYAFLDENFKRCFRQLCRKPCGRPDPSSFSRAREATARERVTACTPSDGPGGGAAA
# T2 sequence (P35372 whole entry): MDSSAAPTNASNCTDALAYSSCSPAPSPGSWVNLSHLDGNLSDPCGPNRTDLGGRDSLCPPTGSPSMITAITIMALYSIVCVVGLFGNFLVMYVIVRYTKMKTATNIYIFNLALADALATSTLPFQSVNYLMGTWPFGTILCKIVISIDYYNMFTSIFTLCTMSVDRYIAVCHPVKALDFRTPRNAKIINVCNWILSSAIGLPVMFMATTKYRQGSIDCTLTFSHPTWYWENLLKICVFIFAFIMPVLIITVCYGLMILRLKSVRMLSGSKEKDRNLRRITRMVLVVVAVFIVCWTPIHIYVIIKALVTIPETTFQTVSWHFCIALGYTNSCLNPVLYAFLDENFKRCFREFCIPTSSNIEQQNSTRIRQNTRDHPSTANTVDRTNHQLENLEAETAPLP
compound,measurement,setting,value
C[C@H](Cc1ccsc1)NC(=O)NC[C@H](Cc1ccc(O)cc1)N(C)C (stereo in doubt) [BD 122LR],hMOR + Gqi5 IP accumulation assay efficacy a,[1],a: 17%
same,Ki,[2]; binding affinity Ki [nM] hKOR,190 nM
same,Ki,[2]; hKOR [3H]dyprenorphine Ki,190 ± 23 nM
same,Ki,[3],88 ± 16 nM
same,Ki,[3]; read-out: binding affinity Ki [nM] hDOR,88 nM
"Cc1cc(O)cc(C)c1C[C@@H](CNC(=O)N[C@H](C)Cc1ccsc1)N(C)C [BD 131LR, 1-((S)-2-(dimethylamino)-3-(4-hydroxy-2,6-dimethylphenyl)propyl)-3-((R)-1-(thiophen-3-yl)propan-2-yl)urea]",hMOR + Gqi5 IP accumulation assay efficacy a @ 10 μM,[1]; @ 10 μM,@ 10 μM a: 10%
"CN(C)[C@H](CNC(=O)NCCc1ccsc1)Cc1ccc(O)cc1 [DD 16, (S)-1-(2-(dimethylamino)-3-(4-hydroxyphenyl)propyl)-3-(2-(thiophen-3-yl)ethyl)urea]",Arrestin pEC50,[4],6.387
same,EC50,[5]; read-out: MOR agonist (potency printed under structure),58 nM
same,Gi/o pEC50,[6],8.122
same,Arrestin + GRK2 pEC50,[7]; GRK2 co-expressed,6.843
"Cc1cc(O)cc(C)c1C[C@@H](CNC(=O)NCCc1ccsc1)N(C)C [DD 34L, (S)-1-(2-(dimethylamino)-3-(4-hydroxy-2,6-dimethylphenyl)propyl)-3-(2-(thiophen-3-yl)ethyl)urea]",functional mode,[5],DD 34L (ANTAGONIST) [drawing 446]
same,hMOR + Gqi5 IP accumulation assay efficacy a,[1],a: <5%
"Cc1cc(O)cc(C)c1C[C@@H](CNC(=O)NCCN1C(=O)C=CC1=O)N(C)C [DD 144, (S)-1-(2-(dimethylamino)-3-(4-hydroxy-2,6-dimethylphenyl)propyl)-3-(2-(2,5-dioxo-2,5-dihydro-1H-pyrrol-1-yl)ethyl)urea]",functional mode,[5],"DD 144 (ANTAGONIST, Covalent) [drawing 452]"
"CN(C)[C@H](CNC(=O)NCCc1ccc(F)cc1)Cc1ccc(O)cc1 [DDLM-15, (S)-1-(2-(dimethylamino)-3-(4-hydroxyphenyl)propyl)-3-(4-fluorophenethyl)urea]",Ki,[2]; binding affinity Ki [nM] hKOR,190 nM
same,Ki,[3],250 nM
same,Ki,[8],27 nM
"CN(CC1CC1)[C@H](CNC(=O)NCCc1ccccc1)Cc1ccc(O)cc1 [PZM27, (S)-1-(2-((Cyclopropylmethyl)(methyl)amino)-3-(4-hydroxyphenyl)propyl)-3-phenethylurea×CF3COOH]",agonist efficacy / potency in Gi/o signaling assay,[9],decreased efficacy
same,loss of potency in Gi/o signaling assay,[9],30 fold
"CN(C=O)[C@H](CNC(=O)NCCc1ccccc1)Cc1ccc(O)cc1 [PZM28, (S)—N-(1-(4-Hydroxyphenyl)-3-(3-phenethylureido)propan-2-yl)-N-methylformamide]",loss of potency in Gi/o signaling assay,[9],1000 fold
"CN(C)[C@H](CNC(=O)NCCc1cn(CCSSCCN=[N+]=[N-])nn1)Cc1ccc(O)cc1 [PZM29, (S)-1-(2-(1-(2-((2-Azidoethyl)disulfanyl)ethyl)-1H-1,2,3-triazol-4-yl)ethyl)-3-(2-(dimethylamino)-3-(4-hydroxyphenyl)propyl)urea×CF3COOH]",agonist efficacy / potency in Gi/o signaling assay,[9],retains its efficacy as an agonist
"COc1ccsc1CNCC[C@@]1(c2ccccn2)CCOC2(CCCC2)C1 [TRV130, reference compound]",β-arrestin2 recruitment in the absence of GRK2,[4],no β-arrestin2 recruitment
same,conditioned place preference,[10],not significant relative to vehicle
same,κOR agonist activity,[11],activates KOR with similar potency to morphine
same,arrestin recruitment with over-expressed GRK2,[7],we observe arrestin recruitment
same,respiration frequency / respiratory depression,[12],significantly depresses respiration at 15 minutes
CN(Cc1nnc(C2CC2)n1C)C(=O)NC[C@@H](Cc1ccccc1)N(C)C [compound 10],"κOR binding, given as <50%",[13],<50%
CN(C)[C@@H](CNC(=O)NC[C@@H](O)c1cnn(C)c1)Cc1ccccc1 [compound 11],"κOR binding, given as <50%",[13],<50%
C[C@H](Cc1ccsc1)NC(=O)NC[C@@H](Cc1ccccc1)N(C)C [compound 12],Emax,[6]; read-out: Gi/o (Glosensor) Emax (%) μOR,88%
same,Emax,[14],43%
same,Emax,[15],9.4%
Cc1nc(CNC(=O)NC[C@@H](Cc2ccccc2)N(C)C)sc1C [compound 15],"κOR binding, given as <50%",[13],<50%
